# In ChEMBL document CHEMBL1148620 (J Med Chem, 2006):
# What was measured:
# Melanocortin receptor 4 [1] = target: T1, Melanocortin receptor 4 (Homo sapiens, UniProt P32245, I291A); assay: Antagonist activity at the mutant MC4R I291A expressed in HEK293 cells by cAMP accumulation; assay type: functional, cell-based
# Melanocortin receptor 4 [2] = target: T2, Melanocortin receptor 4 (Homo sapiens, UniProt P32245, Y268A); assay: Antagonist activity at the mutant MC4R Y268A expressed in HEK293 cells by cAMP accumulation; assay type: functional, cell-based
# Melanocortin receptor 4 [3] = target: T3, Melanocortin receptor 4 (Homo sapiens, UniProt P32245, Y268F); assay: Displacement of [125I]NDP-alpha-MSH from mutant MC4R Y268F expressed in HEK293 cells; assay type: cell-based
# Melanocortin receptor 4 [4] = target: T4, Melanocortin receptor 4 (Homo sapiens, UniProt P32245, I125A); assay: Antagonist activity at the mutant MC4R I125A expressed in HEK293 cells by cAMP accumulation; assay type: functional, cell-based
# Melanocortin receptor 4 [5] = target: T3, Melanocortin receptor 4; assay: Antagonist activity at the mutant MC4R Y268F expressed in HEK293 cells by cAMP accumulation; assay type: functional, cell-based
# Melanocortin receptor 4 [6] = target: T5, Melanocortin receptor 4 (Homo sapiens, UniProt P32245, I129A); assay: biochemical
# Melanocortin receptor 4 [7] = target: T6, Melanocortin receptor 4 (Homo sapiens, UniProt P32245, Y287A); assay: Antagonist activity at the mutant MC4R Y287A expressed in HEK293 cells by cAMP accumulation; assay type: functional, cell-based
# Melanocortin receptor 4 [8] = target: T7, Melanocortin receptor 4 (Homo sapiens, UniProt P32245, Y287F); assay: Antagonist activity at the mutant MC4R Y287F expressed in HEK293 cells by cAMP accumulation; assay type: functional, cell-based
# Melanocortin receptor 4 [9] = target: T2, Melanocortin receptor 4; assay: Displacement of [125I]NDP-alpha-MSH from mutant MC4R Y268A expressed in HEK293 cells; assay type: cell-based
# Melanocortin receptor 4 [10] = target: T8, Melanocortin receptor 4 (Homo sapiens, UniProt P32245, F184A); assay: Antagonist activity at the mutant MC4R F184A expressed in HEK293 cells by cAMP accumulation; assay type: functional, cell-based
# Melanocortin receptor 4 [11] = target: T9, Melanocortin receptor 4 (Homo sapiens, UniProt P32245); assay: biochemical
# Melanocortin receptor 4 [12] = target: T6, Melanocortin receptor 4; assay: Displacement of [125I]NDP-alpha-MSH from mutant MC4R Y287A expressed in HEK293 cells; assay type: cell-based
# Melanocortin receptor 4 [13] = target: T8, Melanocortin receptor 4; assay: Displacement of [125I]NDP-alpha-MSH from mutant MC4R F184A expressed in HEK293 cells; assay type: cell-based
# Melanocortin receptor 4 [14] = target: T4, Melanocortin receptor 4; assay: Displacement of [125I]NDP-alpha-MSH from mutant MC4R I125A expressed in HEK293 cells; assay type: cell-based
# Melanocortin receptor 4 [15] = target: T9, Melanocortin receptor 4; assay: Antagonist activity at the human wild type MC4R expressed in HEK293 cells by cAMP accumulation; assay type: functional, cell-based
# Melanocortin receptor 4 [16] = target: T7, Melanocortin receptor 4; assay: Displacement of [125I]NDP-alpha-MSH from mutant MC4R Y287F expressed in HEK293 cells; assay type: cell-based
# Melanocortin receptor 4 [17] = target: T3, Melanocortin receptor 4; assay: Agonist activity at the mutant MC4R Y268F expressed in HEK293 cells by cAMP accumulation; assay type: functional, cell-based
# Melanocortin receptor 4 [18] = target: T5, Melanocortin receptor 4
# Melanocortin receptor 4 [19] = target: T1, Melanocortin receptor 4; assay: Agonist activity at the mutant MC4R I291A expressed in HEK293 cells by cAMP accumulation; assay type: functional, cell-based
# Melanocortin receptor 4 [20] = target: T4, Melanocortin receptor 4; assay: Agonist activity at the mutant MC4R I125A expressed in HEK293 cells by cAMP accumulation; assay type: functional, cell-based
# Melanocortin receptor 4 [21] = target: T7, Melanocortin receptor 4; assay: Agonist activity at the mutant MC4R Y287F expressed in HEK293 cells by cAMP accumulation; assay type: functional, cell-based
# Melanocortin receptor 4 [22] = target: T9, Melanocortin receptor 4; assay: Agonist activity at the human wild type MC4R expressed in HEK293 cells by cAMP accumulation; assay type: functional, cell-based
# Melanocortin receptor 4 [23] = target: T8, Melanocortin receptor 4; assay: Agonist activity at the mutant MC4R F184A expressed in HEK293 cells by cAMP accumulation; assay type: functional, cell-based
# Melanocortin receptor 4 [24] = target: T6, Melanocortin receptor 4; assay: Agonist activity at the mutant MC4R Y287A expressed in HEK293 cells by cAMP accumulation; assay type: functional, cell-based
# Melanocortin receptor 4 [25] = target: T2, Melanocortin receptor 4; assay: Agonist activity at the mutant MC4R Y268A expressed in HEK293 cells by cAMP accumulation; assay type: functional, cell-based
# T5 sequence (P32245 whole entry I129A): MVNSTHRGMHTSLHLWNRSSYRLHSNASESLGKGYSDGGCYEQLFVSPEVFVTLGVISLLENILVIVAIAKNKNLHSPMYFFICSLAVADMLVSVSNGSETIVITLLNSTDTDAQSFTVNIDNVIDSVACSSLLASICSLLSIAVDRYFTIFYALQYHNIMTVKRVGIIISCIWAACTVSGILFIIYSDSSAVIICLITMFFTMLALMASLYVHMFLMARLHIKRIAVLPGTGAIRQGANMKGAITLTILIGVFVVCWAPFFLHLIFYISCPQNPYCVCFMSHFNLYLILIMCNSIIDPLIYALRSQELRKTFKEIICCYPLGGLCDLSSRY
# T9 sequence (P32245 whole entry): as the sequence (P32245 whole entry I129A) above, with A129I counted along it
# T4 sequence (P32245 whole entry I125A): as the sequence (P32245 whole entry I129A) above, with I125A, A129I counted along it
# T6 sequence (P32245 whole entry Y287A): as the sequence (P32245 whole entry I129A) above, with A129I, Y287A counted along it
# T1 sequence (P32245 whole entry I291A): as the sequence (P32245 whole entry I129A) above, with A129I, I291A counted along it
# T3 sequence (P32245 whole entry Y268F): as the sequence (P32245 whole entry I129A) above, with A129I, Y268F counted along it
# T7 sequence (P32245 whole entry Y287F): as the sequence (P32245 whole entry I129A) above, with A129I, Y287F counted along it
# T8 sequence (P32245 whole entry F184A): as the sequence (P32245 whole entry I129A) above, with A129I, F184A counted along it
# T2 sequence (P32245 whole entry Y268A): as the sequence (P32245 whole entry I129A) above, with A129I, Y268A counted along it
Ki (Melanocortin receptor 4 [3]),Ki (Melanocortin receptor 4 [6]),Ki (Melanocortin receptor 4 [9]),Ki (Melanocortin receptor 4 [11]),Ki (Melanocortin receptor 4 [12]),Ki (Melanocortin receptor 4 [13]),Ki (Melanocortin receptor 4 [14]),Ki (Melanocortin receptor 4 [16]),EC50 (Melanocortin receptor 4 [17]),EC50 (Melanocortin receptor 4 [18]),EC50 (Melanocortin receptor 4 [19]),EC50 (Melanocortin receptor 4 [20]),EC50 (Melanocortin receptor 4 [21]),EC50 (Melanocortin receptor 4 [22]),EC50 (Melanocortin receptor 4 [23]),EC50 (Melanocortin receptor 4 [24]),EC50 (Melanocortin receptor 4 [25]),SMILES,further results
0.92 nM,14 nM,40 nM,1.5 nM,18 nM,0.71 nM,1.3 nM,1.7 nM,–,–,–,–,–,–,–,–,–,CC[C@H](C)[C@@H]1NC(=O)[C@H]([C@@H](C)O)NC(=O)[C@H](Cc2c[nH]c3ccccc23)NC(=O)[C@H](CCCN=C(N)N)NC(=O)[C@@H](Cc2cccc3ccccc23)NC(=O)[C@H](Cc2c[nH]cn2)NC(=O)[C@H]([C@@H](C)O)NC(=O)[C@H](Cc2ccc(O)cc2)NC(=O)[C@H]([C@@H](C)O)NC(=O)[C@@H]2CCCN2C1=O,IC50 (Melanocortin receptor 4 [1]): 22 nM; IC50 (Melanocortin receptor 4 [2]): 248 nM; IC50 (Melanocortin receptor 4 [4]): 5.8 nM; IC50 (Melanocortin receptor 4 [5]): 17 nM; IC50 (Melanocortin receptor 4 [7]): 121 nM; IC50 (Melanocortin receptor 4 [8]): 8.8 nM; IC50 (Melanocortin receptor 4 [10]): 11 nM; IC50 (Melanocortin receptor 4 [15]): 16 nM
275 nM,3100 nM,1020 nM,305 nM,2120 nM,114 nM,1250 nM,890 nM,6.6 nM,1520 nM,> 1000 nM,53 nM,10 nM,9.5 nM,1.02 nM,418 nM,33 nM,CN(C)[C@H]1C[C@@H](C(=O)N2CCC(Cn3cncn3)(C3CCCCC3)CC2)[C@H](c2ccc(Cl)cc2)C1,–
83 nM,710 nM,1370 nM,59 nM,1490 nM,29 nM,111 nM,90 nM,12 nM,250 nM,250 nM,202 nM,9.5 nM,11 nM,3.2 nM,328 nM,270 nM,CC[C@H](C)[C@@H]1NC(=O)[C@H]([C@@H](C)O)NC(=O)[C@H](Cc2c[nH]c3ccccc23)NC(=O)[C@H](CCCN=C(N)N)NC(=O)[C@@H](Cc2ccccc2)NC(=O)[C@H](Cc2cnc[nH]2)NC(=O)[C@H]([C@@H](C)O)NC(=O)[C@H](Cc2ccc(O)cc2)NC(=O)[C@H](CO)NC(=O)[C@@H]2CCCN2C1=O,–
